Earlier results in US12343348B2, “Methods for treating subjects with Prader-Willi syndrome or Smith-Magenis syndrome” (Essentialis, Inc., priority 2014, dated 2025).

Experiments:
Kir6.2/SUR1 channel = Kir6.2/SUR1 channel (Rattus norvegicus, UniProt Q09429); settings: Dabrowski, et al., Diabetes 51 (2002)
KATP channel = target: T1, KATP channel (Homo sapiens, UniProt Q09428); settings: patients with hyperinsulinism and patients with pancreatic insulinoma
T1 construct: host or cells: patients with hyperinsulinism or pancreatic insulinoma (endogenous channel)
T1 sequence (Q09428 whole entry): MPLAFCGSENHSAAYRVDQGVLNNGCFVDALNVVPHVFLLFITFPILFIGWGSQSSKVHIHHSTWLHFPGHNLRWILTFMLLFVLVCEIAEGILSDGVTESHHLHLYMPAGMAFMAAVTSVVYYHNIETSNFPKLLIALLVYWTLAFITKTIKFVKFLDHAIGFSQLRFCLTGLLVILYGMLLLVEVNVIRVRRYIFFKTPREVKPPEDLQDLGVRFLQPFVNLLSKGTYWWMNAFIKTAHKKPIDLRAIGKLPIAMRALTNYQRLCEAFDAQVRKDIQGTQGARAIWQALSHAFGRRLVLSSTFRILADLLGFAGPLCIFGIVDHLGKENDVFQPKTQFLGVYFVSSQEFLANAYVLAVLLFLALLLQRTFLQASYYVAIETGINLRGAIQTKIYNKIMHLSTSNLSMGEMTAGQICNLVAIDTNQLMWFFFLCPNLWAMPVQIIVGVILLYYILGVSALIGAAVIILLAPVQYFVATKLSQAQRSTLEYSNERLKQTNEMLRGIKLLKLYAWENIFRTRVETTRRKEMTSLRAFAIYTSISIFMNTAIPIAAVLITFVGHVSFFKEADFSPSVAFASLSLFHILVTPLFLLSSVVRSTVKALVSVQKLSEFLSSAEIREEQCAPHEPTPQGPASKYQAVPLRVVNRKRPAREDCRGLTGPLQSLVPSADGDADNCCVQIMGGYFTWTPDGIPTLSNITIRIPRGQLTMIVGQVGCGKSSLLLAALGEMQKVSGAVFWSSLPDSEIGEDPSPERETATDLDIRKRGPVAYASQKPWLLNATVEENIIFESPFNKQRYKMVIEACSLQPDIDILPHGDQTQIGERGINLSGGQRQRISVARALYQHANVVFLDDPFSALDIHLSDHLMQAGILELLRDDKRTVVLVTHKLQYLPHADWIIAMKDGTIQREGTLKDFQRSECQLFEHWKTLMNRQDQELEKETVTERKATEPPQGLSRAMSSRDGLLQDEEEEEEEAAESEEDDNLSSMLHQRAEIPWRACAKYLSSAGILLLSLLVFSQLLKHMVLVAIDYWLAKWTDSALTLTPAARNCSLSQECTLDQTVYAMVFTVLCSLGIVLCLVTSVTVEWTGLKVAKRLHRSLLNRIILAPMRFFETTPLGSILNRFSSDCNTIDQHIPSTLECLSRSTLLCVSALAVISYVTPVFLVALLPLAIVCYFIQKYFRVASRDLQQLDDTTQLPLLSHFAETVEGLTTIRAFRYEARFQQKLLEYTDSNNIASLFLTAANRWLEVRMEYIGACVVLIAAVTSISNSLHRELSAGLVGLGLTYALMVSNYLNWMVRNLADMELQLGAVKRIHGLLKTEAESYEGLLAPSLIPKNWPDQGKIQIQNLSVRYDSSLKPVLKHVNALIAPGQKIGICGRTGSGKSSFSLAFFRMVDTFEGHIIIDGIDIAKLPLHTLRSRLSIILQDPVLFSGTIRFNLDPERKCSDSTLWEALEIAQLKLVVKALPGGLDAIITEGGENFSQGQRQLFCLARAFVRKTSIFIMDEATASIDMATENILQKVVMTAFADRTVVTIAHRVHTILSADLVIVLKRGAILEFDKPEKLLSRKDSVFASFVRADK
T1 sequence (Q14654 whole entry partner): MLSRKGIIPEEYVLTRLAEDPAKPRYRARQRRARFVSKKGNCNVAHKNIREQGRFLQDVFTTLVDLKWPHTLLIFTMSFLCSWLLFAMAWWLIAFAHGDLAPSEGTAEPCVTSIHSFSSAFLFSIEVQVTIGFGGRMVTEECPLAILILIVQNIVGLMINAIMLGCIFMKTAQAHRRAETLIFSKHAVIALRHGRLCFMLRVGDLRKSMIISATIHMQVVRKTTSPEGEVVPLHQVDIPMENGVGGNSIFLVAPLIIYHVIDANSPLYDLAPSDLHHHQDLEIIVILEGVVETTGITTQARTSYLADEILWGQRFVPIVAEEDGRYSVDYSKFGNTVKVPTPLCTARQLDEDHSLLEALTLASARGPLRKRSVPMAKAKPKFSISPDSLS

Kir6.2/SUR1 channel, sequence (Q09429 whole entry): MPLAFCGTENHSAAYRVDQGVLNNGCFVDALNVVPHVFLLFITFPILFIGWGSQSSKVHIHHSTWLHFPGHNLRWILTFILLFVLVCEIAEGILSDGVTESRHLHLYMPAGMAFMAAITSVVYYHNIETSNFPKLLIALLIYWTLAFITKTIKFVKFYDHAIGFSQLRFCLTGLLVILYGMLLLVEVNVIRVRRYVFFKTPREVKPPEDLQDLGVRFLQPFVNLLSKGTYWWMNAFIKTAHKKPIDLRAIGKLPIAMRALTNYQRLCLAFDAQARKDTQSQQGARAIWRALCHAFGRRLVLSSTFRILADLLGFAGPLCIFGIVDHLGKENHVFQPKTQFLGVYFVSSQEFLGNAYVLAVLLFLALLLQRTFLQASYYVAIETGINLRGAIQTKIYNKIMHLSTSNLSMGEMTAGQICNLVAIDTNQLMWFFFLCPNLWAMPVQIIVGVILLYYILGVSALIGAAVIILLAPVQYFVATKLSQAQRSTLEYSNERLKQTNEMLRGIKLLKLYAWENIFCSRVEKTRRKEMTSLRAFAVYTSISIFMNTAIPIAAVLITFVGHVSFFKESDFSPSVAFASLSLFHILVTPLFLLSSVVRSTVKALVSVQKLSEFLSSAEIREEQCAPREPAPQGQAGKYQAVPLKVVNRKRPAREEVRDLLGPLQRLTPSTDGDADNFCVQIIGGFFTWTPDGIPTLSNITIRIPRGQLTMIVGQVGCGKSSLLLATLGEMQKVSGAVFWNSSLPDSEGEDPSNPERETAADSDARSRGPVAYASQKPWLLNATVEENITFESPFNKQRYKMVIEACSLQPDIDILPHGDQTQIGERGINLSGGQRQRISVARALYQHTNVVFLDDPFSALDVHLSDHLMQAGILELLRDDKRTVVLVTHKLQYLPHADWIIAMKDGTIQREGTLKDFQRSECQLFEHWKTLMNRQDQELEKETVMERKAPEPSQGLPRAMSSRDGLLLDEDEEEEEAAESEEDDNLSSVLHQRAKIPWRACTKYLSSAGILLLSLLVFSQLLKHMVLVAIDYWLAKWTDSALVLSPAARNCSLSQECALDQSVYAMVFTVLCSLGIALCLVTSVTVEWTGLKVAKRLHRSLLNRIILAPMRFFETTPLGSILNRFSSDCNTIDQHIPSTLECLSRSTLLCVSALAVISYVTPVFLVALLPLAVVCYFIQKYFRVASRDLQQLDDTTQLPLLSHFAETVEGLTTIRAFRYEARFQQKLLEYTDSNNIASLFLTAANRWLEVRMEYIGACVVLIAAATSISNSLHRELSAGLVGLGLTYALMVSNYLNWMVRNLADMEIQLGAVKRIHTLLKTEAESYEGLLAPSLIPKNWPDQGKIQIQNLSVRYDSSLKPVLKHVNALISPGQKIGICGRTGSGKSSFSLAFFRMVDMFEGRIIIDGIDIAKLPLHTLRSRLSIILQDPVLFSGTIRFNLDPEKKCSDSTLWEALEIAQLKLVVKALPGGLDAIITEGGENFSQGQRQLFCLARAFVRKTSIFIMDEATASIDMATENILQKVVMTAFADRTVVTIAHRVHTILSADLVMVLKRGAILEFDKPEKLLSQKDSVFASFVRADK
Kir6.2/SUR1 channel, sequence (Q61743 whole entry partner): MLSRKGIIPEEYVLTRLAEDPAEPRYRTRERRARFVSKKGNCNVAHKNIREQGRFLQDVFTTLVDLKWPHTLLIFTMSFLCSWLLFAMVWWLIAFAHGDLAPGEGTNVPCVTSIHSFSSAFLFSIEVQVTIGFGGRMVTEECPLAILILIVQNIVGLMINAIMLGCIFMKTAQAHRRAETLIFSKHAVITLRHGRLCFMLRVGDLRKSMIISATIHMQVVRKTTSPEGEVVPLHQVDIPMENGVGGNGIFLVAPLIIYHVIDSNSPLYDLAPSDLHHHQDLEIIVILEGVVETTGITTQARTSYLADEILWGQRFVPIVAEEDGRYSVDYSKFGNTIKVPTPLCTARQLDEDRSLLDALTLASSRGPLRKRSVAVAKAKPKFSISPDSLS

Row | Compound | KATP channel opener selectivity (Kir6.2/SUR1 channel) | KATP channel activation (KATP channel)
1 | COc1ccc2c(c1)S(=O)(=O)N=C(NC(C)C)N2 [3-isopropylamino-7-methoxy-4H-1,2,4,-benzothiadiazine 1,1-dioxide] | selective Kir6.2/SUR1 channel opener | 
2 | CC(C)N=C1Nc2cc(Cl)c(Cl)cc2S(=O)(=O)N1 [BPDZ 154] |  | effective KATP channel activator
